Assays:
[1] = target: ATP-dependent translocase ABCB1 (Homo sapiens, UniProt P08183); test: Inhibition of p-glycoprotein in Homo sapiens (human) K562/A02 cells assessed as reduction of adriamycin IC50 for cytotoxic effect at IC10 treated 12 hr before adriamycin challenge measured after 24 to 72 hr by MTT assay; type: cell-based
K562 = test: Ratio of compound IC50 to adriamycin IC50 for Homo sapiens (human) K562 cells after 24 to 72 hr by MTT assay; type: functional
[2] = Cytotoxicity against Homo sapiens (human) K562/A02 cells after 24 to 72 hr by MTT assay; type: cell-based

ATP-dependent translocase ABCB1, sequence (P08183 whole entry): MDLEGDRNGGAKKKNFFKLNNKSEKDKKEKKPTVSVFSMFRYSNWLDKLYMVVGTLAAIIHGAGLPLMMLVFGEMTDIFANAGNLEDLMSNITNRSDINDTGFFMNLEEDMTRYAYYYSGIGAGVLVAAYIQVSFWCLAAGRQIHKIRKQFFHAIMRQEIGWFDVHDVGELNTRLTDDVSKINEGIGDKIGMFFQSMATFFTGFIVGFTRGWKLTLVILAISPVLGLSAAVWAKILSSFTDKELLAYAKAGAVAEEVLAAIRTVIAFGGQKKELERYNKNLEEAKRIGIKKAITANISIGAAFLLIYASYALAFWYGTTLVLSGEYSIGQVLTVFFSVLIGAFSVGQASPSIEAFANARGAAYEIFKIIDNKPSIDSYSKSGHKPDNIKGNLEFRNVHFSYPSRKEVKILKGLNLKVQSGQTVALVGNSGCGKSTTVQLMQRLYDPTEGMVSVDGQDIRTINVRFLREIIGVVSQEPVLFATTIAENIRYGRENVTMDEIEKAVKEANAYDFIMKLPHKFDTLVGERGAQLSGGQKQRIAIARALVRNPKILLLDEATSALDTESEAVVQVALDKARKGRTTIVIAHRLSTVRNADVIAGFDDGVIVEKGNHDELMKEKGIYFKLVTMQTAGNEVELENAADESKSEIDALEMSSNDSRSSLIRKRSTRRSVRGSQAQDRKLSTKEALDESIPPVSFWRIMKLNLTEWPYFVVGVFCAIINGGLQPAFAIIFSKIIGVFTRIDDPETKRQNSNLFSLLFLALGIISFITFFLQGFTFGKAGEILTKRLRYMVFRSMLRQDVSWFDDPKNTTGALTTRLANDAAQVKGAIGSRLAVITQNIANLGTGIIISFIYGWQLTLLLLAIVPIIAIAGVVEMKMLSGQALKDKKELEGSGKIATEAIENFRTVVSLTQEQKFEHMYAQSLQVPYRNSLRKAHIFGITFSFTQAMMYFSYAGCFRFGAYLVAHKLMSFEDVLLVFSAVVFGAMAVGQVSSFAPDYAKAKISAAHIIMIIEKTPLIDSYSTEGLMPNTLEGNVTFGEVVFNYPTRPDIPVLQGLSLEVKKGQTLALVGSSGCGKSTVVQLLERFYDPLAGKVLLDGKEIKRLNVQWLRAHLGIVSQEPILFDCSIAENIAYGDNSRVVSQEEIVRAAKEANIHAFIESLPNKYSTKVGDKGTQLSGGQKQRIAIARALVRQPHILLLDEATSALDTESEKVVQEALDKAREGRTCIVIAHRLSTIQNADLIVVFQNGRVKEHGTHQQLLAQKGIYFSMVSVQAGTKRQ

Row | Structure (SMILES) | fold change (FC) [1] | Ratio IC50 (K562) | IC10 [2] [µM]
1 | Cc1nc2ccccc2n(CC(=O)Nc2ccccc2)c1=O | 2.45 | 1.07 | 34.1
2 | Cc1nc2ccccc2n(CC(=O)Nc2ccc(Br)cc2)c1=O | 1.24 | 0.94 | 2.7
3 | Cc1nc2ccccc2n(CC(=O)Nc2ccc(F)c(F)c2)c1=O | 5.3 | 1.07 | 2.57
4 | Cc1ccc(NC(=O)Cn2c(=O)c(C)nc3ccccc32)cc1 | 3.55 | 1 | 1.63
5 | COC(=O)[C@@H]1C[C@@H](O)CN1C(=O)Cn1c(=O)c(C)nc2ccccc21 | 4.82 | 1.15 | 2.89
6 | Cc1ccccc1NC(=O)Cn1c(=O)c(C)nc2ccccc21 | 4.01 | 1.15 | 1.85
7 | Cc1nc2cc(F)c(F)cc2n(CC(=O)Nc2ccccc2)c1=O | 2.41 | 1 | 1.52
8 | Cc1nc2ccccc2n(CC(=O)Nc2ccc(Cl)c(Cl)c2)c1=O | 1.62 | 1.07 | 0.14
9 | Cc1nc2ccccc2n(CC(=O)Nc2ccc(F)c(Cl)c2)c1=O | 1.83 | 1 | 2.91
10 | COC(=O)[C@H](Cc1ccccc1)NC(=O)Cn1c(=O)c(C)nc2cc(OC)c(OC)cc21 | 1.82 | 1 | 11.38
11 | CCOC(=O)Cn1c(=O)c(C)nc2ccccc21 | 1.5 | 1 | 4.06
12 | COC(=O)[C@H](Cc1ccccc1)NC(=O)Cn1c(=O)c(C)nc2ccccc21 | 2.01 | 1.25 | 13.19
13 | COc1cc2nc(C)c(=O)n(CC(=O)Nc3ccccc3)c2cc1OC | 4.59 | 1.15 | 2.84
14 | CCOC(=O)CC[C@H](NC(=O)Cn1c(=O)c(C)nc2ccccc21)C(=O)OCC | 4.13 | 1.15 | 2.48
15 | CCOC(=O)CNC(=O)Cn1c(=O)c(C)nc2ccccc21 | 2.37 | 1.07 | 16.5
16 | COC(=O)[C@H](Cc1ccccc1)NC(=O)Cn1c(=O)c(C)nc2cc(F)c(F)cc21 | 1.05 | 1.15 | 2.41
17 | COc1ccc(NC(=O)Cn2c(=O)c(C)nc3ccccc32)cc1OC | 3.75 | 1.15 | 1.42

Source: ChEMBL document CHEMBL3045558, “Synthesis and primary evaluation of quinoxalinone derivatives as potent modulators of multidrug resistance” (Med Chem Res, 2009)
